Test results from patent US20260378560A1, “APPROACHES TO DESIGNING AND PERFORMING COMPRESSED BIOLOGICAL EXPERIMENTS AND SYSTEMS FOR IMPLEMENTING THE SAME” (EXVIVO LABS INC., priority 2023, published 2026).

What was measured:
[1] = system: REH; assay: Cell viability (CellTiter Glo), compressed perturbation pools with informed pool design, MAX-based deconvolution, REH; details: for DRS / DRS from MAX-based deconvolution / top hit of cohort (deconvoluted effect size) / DRS, REH, MAX: REH; for DRS: None (measured individually), informed pool design table; for DRS from MAX-based deconvolution: Samples, 7 Pick 3 informed perturbation pools; for top hit of cohort (deconvoluted effect size): informed perturbation pools; for DRS, REH, MAX: compressed perturbation pools, informed pool design, MAX-based deconvolution;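 for DRS from MAX-based deconvolution: higher DRS means a larger drug effect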
In short: (§1)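 Per-drug DRS recovered by MAX deconvolution, which assumes the strongest pool member masks the rest; after ranking, each drug in turn takes the DRS of the lowest-signal pool containing it, and leftovers score zero. Pools built from drug class and known toxic combinations; dose-response spans 1 nM to 10 μM, read by ATP-based luminescence.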

[2] = system: MOLT-4; assay: Cell viability (CellTiter Glo), compressed perturbation pools with informed pool design, SUM-based deconvolution, MOLT-4; set-up: scale not given here
Procedure: (§2) Total cell viability was measured for each sample using an ATP-based luminescence assay (i.e., CellTiter Glo). Each cancer drug was then screened at multiple concentrations ranging from one nM to ten μM in order to generate a dose-response curve and calculate a DRS for each cancer cell line.
(§3) Each cancer drug was cultured with target cells individually. At the end of the screen, samples were either analyzed individually or compressed into pools for analysis. The library was compressed alphabetically into ten cohorts, each of which contained seven cancer drugs present in three out of the seven pools, as shown in Table VII. Said another way, the screening platform 210 generated a “7 pick 3” compressed library by assigning the cancer drugs among different pools. […] The library was also compressed into ten cohorts with pools designed based on information known about each cancer drug, as shown in Table VIII. After cell viability measurement and DRS calculation, the DRS of each cancer drug in the samples generated based on the pools were deconvoluted and compared to the DRS for each cancer drug measured individually.
(§4) In parallel to the exemplary sample compression screen covered in Table VII, perturbations were compressed into pools and then screened. The pools were designed using drug class as a feature with two compression rules (or simply “rules”). The first rule required that drugs from the same class be separated into different cohorts (i.e., mutually exclusive groups of pools). The second rule separated PI3K pathway inhibitors from MAPK pathway inhibitors, as inhibiting these pathways in parallel is known to be synergistic but has not been clinically effective due to dose-limiting toxicities. A benefit of compressing perturbations is the ability to measure additive, antagonistic, and synergistic effects between drugs in the same pool. However, these effects can negatively impact deconvolution of individual drug effects. Therefore, combinations of drugs for which evidence of clinical toxicity exists can be assigned to different pools in accordance with an informed pooling operation. As new preclinical or clinical evidence of toxic combinations becomes available, the rules implemented by the screening platform 210—and more specifically, its algorithm for compressing members of a library—can be updated accordingly.
(§5) In SUM-based deconvolution, an assumption of additivity is used to quantify the individual effects of each perturbation on each target. Additivity implies that each perturbation effect on each target is positively contributing to the overall effect measured for that pool. This is an accurate assumption for certain experiments, such as when targets or samples are compressed. When targets are pooled—or when samples containing different targets are pooled—the effect of each perturbation on each individual target is diluted. In other words, each perturbation has an isolated effect on a target in culture, and the sum total of the isolated effects are measured when pooled. Therefore, SUM-based deconvolution breaks down the sum total measured for a pool and assigns estimated fractional effects to each compressed perturbation or target in the pool. The screening platform 210 used SUM-based deconvolution for all target and sample compression experiments described above.
(§6) As mentioned above, SUM-based deconvolution uses the overlapping pool design to identify relative relationships and ranges for the individual effects of each perturbation. When the overlapping pool design is not sufficient to solve for the polynomials representing perturbation effects, an anchor perturbation can be identified by the screening platform 210 based on rank order and assigned an effect size of zero. The anchor perturbation may be the lowest ranked perturbation in the rank order. This then enables the screening platform 210 to solve for the polynomials for the remaining perturbations.

[3] = system: REH; assay: Cell viability (CellTiter Glo), library of cancer drugs, individual or sample compression with randomized (alphabetical) pools, REH; type: cell-based; details: REH; for DRS: None (measured individually); for DRS from deconvolution: Samples, 7 Pick 3 randomized (alphabetical) sample pools
In short: (§7)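 Cells cultured with each drug individually at 1 nM–10 μM; viability by ATP luminescence (CellTiter Glo) to build dose-response curves and DRS. Samples read singly or pooled alphabetically (each drug in 3 of 7 pools), with pooled DRS recovered by additivity-based SUM deconvolution.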

[4] = system: REH; assay: Cell viability (CellTiter Glo), compressed perturbation pools with informed pool design, SUM-based deconvolution, REH; set-up: scale not given here
Procedure: as §2, §3, §4, §5, §6

[5] = system: MOLT-4; assay: Cell viability (CellTiter Glo), compressed perturbation pools with informed pool design, MAX-based deconvolution, MOLT-4; details: for top hit of cohort (deconvoluted effect size): MOLT, informed perturbation pools; for DRS: MOLT-4, None (measured individually), informed pool design table; for DRS from MAX-based deconvolution: MOLT-4, Samples, 7 Pick 3 informed perturbation pools; for DRS, MOLT-4, MAX: compressed perturbation pools, informed pool design, MAX-based deconvolution;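 for DRS from MAX-based deconvolution: higher DRS means a larger drug effect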
In short: as §1

[6] = system: MOLT-4; assay: Cell viability (CellTiter Glo), library of cancer drugs, individual or sample compression with randomized (alphabetical) pools, MOLT-4; type: cell-based; details: for DRS: MOLT-4, None (measured individually); for DRS from deconvolution: MOLT-4, Samples, 7 Pick 3 randomized (alphabetical) sample pools
In short: as §7

SMILES: O=C(/C=C\n1cnc(-c2cc(C(F)(F)F)cc(C(F)(F)F)c2)n1)NNc1cnccn1 [Selinexor]
- DRS [1]: 2.30
- DRS from MAX-based deconvolution [1]: 2.51
- top hit of cohort (deconvoluted effect size) [1]: top hit
- DRS, REH, MAX [1]: 23.72
- DRS, MOLT-4, SUM [2]: 24.24
- DRS [3]: 21.81
- DRS from deconvolution [3]: 21.40
- DRS, REH, SUM [4]: 26.41
- top hit of cohort (deconvoluted effect size) [5]: top hit
- DRS [5]: 0.00
- DRS from MAX-based deconvolution [5]: 0.00
- DRS, MOLT-4, MAX [5]: 24.91
- DRS [6]: 24.71
- DRS from deconvolution [6]: 25.16

SMILES: CO[C@H]1C[C@@H]2CC[C@@H](C)[C@@](O)(O2)C(=O)C(=O)N2CCCC[C@H]2C(=O)O[C@H]([C@H](C)C[C@@H]2CC[C@@H](OC(=O)C(C)(CO)CO)[C@H](OC)C2)CC(=O)[C@H](C)/C=C(\C)[C@@H](O)[C@@H](OC)C(=O)[C@H](C)C[C@H](C)/C=C/C=C/C=C/1C [Temsirolimus]
- effect on REH relative to MOLT cell line ([1]; REH relative to MOLT): much larger effects on the REH cell line
- DRS [1]: 8.19
- DRS from MAX-based deconvolution [1]: 9.23
- top hit of cohort (deconvoluted effect size) [1]: top hit
- DRS, REH, MAX [1]: 9.23
- DRS, MOLT-4, SUM [2]: 2.54
- DRS [3]: 8.19
- DRS from deconvolution [3]: 8.71
- DRS, REH, SUM [4]: 9.71
- top hit of cohort (deconvoluted effect size) [5]: top hit
- DRS [5]: 2.99
- DRS from MAX-based deconvolution [5]: 3.88
- DRS, MOLT-4, MAX [5]: 3.88
- DRS [6]: 2.99
- DRS from deconvolution [6]: 3.21
